This passage reports IC50, EC50 and AC50 results from ChEMBL document CHEMBL1201862, “PubChem BioAssay data set” (2004).

Active and inactive are the calls of the source.

Assay [1] can be described thus: potency of ADAM10 substrate cleavage blockers – biochemical, QFRET, dose response (AID 743254).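 Also: ADAM10 enzyme with the DM2 quenched FRET peptide as substrate; EDANS fluorescence gain as the protease cuts the substrate; inhibitor potency against ADAM10 proteolytic activity.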
Assay [2] deals with T1, Disintegrin and metalloproteinase domain-containing protein 17 (Homo sapiens, UniProt P78536). Nature of the assay: inhibition of ADAM17 substrate cleavage – biochemical, quenched FRET substrate, counter-screen for ADAM10 exosite inhibitor project, dose response (AID 743253). A general note: The purpose of a counterscreen is to sort out artefacts and off-target activity.

Another assay has as its target Major prion protein (Homo sapiens, UniProt P04156). In kind it is functional, cell-based.
The nature of assay [3]: cells.
For assay [4], the target named is T1, Disintegrin and metalloproteinase domain-containing protein 17. In words: exosite inhibitors of ADAM17, dose response, biochemical (AID 743260).
Assay [5] can be described thus: inhibition of ADAM10 peptide cleavage – biochemical, FRET peptide substrate, recombinant human ADAM10, selectivity assay for ADAM17 exosite inhibitor project, dose response (AID 743259).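 Also: ADAM10 enzyme cleaving a FRET peptide substrate.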
The target of assay [6] is T2, Oxysterols receptor LXR-beta (Homo sapiens, UniProt P55055).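 Also: agonist activity at LXR measured by a cell-based luminescence readout across a dose range, run as a counterscreen for daf-12 agonists; HEK293 cells with Gal4-LXR fusion and GAL4-driven luciferase reporter; potency for activation of Gal4-LXR reporter so compounds are agonists.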
T2 sequence (P55055 whole entry): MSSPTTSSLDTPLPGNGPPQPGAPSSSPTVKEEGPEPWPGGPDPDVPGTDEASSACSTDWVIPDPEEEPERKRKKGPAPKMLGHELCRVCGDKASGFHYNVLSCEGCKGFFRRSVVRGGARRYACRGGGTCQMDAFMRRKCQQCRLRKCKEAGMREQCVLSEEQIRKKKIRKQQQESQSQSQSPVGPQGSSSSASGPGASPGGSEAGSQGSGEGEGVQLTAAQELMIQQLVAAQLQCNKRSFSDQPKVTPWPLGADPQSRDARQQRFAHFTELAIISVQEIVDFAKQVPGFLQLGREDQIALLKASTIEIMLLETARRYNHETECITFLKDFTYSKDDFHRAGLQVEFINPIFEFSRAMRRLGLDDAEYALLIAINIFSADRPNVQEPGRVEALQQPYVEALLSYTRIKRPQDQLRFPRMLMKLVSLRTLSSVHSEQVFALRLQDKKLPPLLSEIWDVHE
In kind it is functional, cell-based.

A short description of assay [7]: NIH-3T3 fibroblast cytotoxicity, dose response, cytotoxicity control, cell-based, fluorescence, Alamar Blue, secondary assay (AID 2327).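 Also: NIH-3T3 mouse fibroblasts cultured with fluconazole at 8 µg/mL.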 Format: functional. In general terms: The colour change of resazurin is a common sign of viable cells or microbes.
Assay [8] is described as follows: fluconazole-exposed Candida albicans growth modulators – fluorescence, retest, confirmation (AID 2467). In kind it is functional, cell-based.
Assay [9] concerns the target Heat shock protein HSP 90-alpha (Homo sapiens, UniProt P07900). Format: functional, organism-based.
Assay [10] in a line: viability loss in A549 lung cancer cells – cell-based, cherry-picks, […], cytotoxicity control, dose response (AID 1053119). Format: functional.
Another assay has as its target Caspase-6 (Homo sapiens, UniProt P55212). Nature of the assay: inhibition of CASP6 peptide cleavage – biochemical, VEID-R110 fluorescence, cherry-pick, dose response (AID 720632).
A further assay deals with Caspase-7 (Homo sapiens, UniProt P55210). Nature of the assay: caspase-7 enzyme inhibition, selectivity check – biochemical, DEVD-R110 fluorescence, cherry-pick, selectivity assay for caspase-6 inhibitor project, dose response (AID 743295). Format: functional.
A further assay deals with Caspase-8 (Homo sapiens, UniProt Q14790). In words: inhibitors of purified CASP8 protease – biochemical, Z-IETD-R110 fluorescence, cherry-picked samples, selectivity assay for caspase-6 inhibitor project, dose response (AID 743294).
Assay [11] can be described thus: viability loss in HepG2 hepatoma cells – cell-based, ATP luminescence, cherry-pick, activator set 2, cytotoxicity control, dose response (AID 1053143). In kind it is functional.
For assay [12], the system named is HEK293. Nature of the assay: inhibition of NOD1-driven NF-kB reporter – cell-based, luminescence, uHTS, primary screen (AID 1578). In kind it is functional. Particulars: Homo sapiens.
In assay [13] the test system is HEK293. In words: cells. In kind it is functional, cell-based. Particulars: Homo sapiens.
The subject of assay [14] is HEK293. Nature of the assay: cells. In kind it is functional, cell-based. Particulars: Homo sapiens. The source holds these as a separate data set.
In assay [15] the test system is HEK293. Nature of the assay: NOD2 signaling inhibitors in MDP-stimulated cells, cell-based, uHTS, luminescence (AID 2001). In kind it is functional. Particulars: Homo sapiens.
The nature of assay [16]: Trypanosoma cruzi growth suppression in host cells – NIH3T3 host cells, beta-gal luminescence, confirmation (AID 2044).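 Also: intracellular parasites grown in NIH/3T3 mouse fibroblasts as host cells; luminescent beta-galactosidase reporter signal from transgenic T. cruzi replicating inside host cells; inhibitors lower the luminescence signal.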 Format: functional, cell-based.
The subject of assay [17] is HEK293. Nature of the assay: cells. In kind it is functional, cell-based. Particulars: Homo sapiens. The source holds these as a separate data set.
Assay [18] is described as follows: NIH3T3 cell viability loss – ATP luminescence, mouse fibroblasts, counter-screen, dose response (AID 2010).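 Also: cells exposed to compound for about 90 hours before reading.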 In kind it is functional, cell-based.
Assay [19] is described as follows: HGIII-sPLA2 enzyme inhibition potency – biochemical, QFRET, IC50, dose response (AID 743457).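 Also: green fluorescence rise as the enzyme cleaves BODIPY PC-A2 in liposomes.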
The test system of assay [20] is HEK293. Nature of the assay: cells. Particulars: Homo sapiens.
The nature of assay [21]: reduction of Shn3 3'UTR-driven luciferase in osteoblasts – cell-based, Clone20 osteoblasts, firefly luciferase, cherry-picked, dose response (AID 624132).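 Also: firefly luciferase luminescence from reporter carrying the Shn3 3'UTR in osteoblasts.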 In kind it is functional.
A short description of assay [22]: loss of viability in HepG2 cells – cell-based, CellTiter-Glo, cherry-picked, cytotoxicity control for Shn3 inhibitor project, dose response (AID 624134). In kind it is functional.
Assay [23] can be described thus: non-specific 3'UTR reporter inhibition in Clone20-Shn3RL – cell-based, Renilla luciferase, cherry-picked, counter-screen for Shn3 inhibitor project, dose response (AID 624133). In kind it is functional.
Assay [24] in a line: Shn3 3'UTR reporter signal decrease – cell-based, Clone20 osteoblasts, firefly luciferase, cherry-pick, set 2, Schnurri-3 inhibitor project, dose response (AID 720490).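 Also: actives lower the luminescence signal as inhibitors.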 Format: functional.
A short description of assay [25]: cells. This is another data set of the same source.

One may read the IC50 as the midpoint of a concentration-inhibition curve. In the case of `Cc1cc(C)cc(NS(=O)(=O)c2ccc(NC(=S)NC(=O)c3ccc(Br)o3)cc2)c1`, the IC50 was 11.7 µM (inactive) in assay [1] and > 69.5 µM (inactive) in assay [2].
Turning to `CCOC(=O)CSc1nc(C(C)(C)C)nc2ccccc12`, the results for the IC50 on Major prion protein and in “cells [3]” were 6.98 µM (active) and > 138 µM (inactive), respectively.
Turning to `COc1ccc(N(C)S(=O)(=O)c2cccc(C(=O)OC(C(=O)Nc3cc(C)cc(C)c3)c3ccccc3)c2)cc1` (centres undefined), the IC50 in assay [4] and in assay [5] was > 69.5 µM (inactive) each time.
Broadly, the EC50 is the concentration giving half of the maximal effect. As to `COCCNc1nc(-c2cc3ccccc3o2)cs1`, the EC50 in assay [6] is > 67.5 µM (inactive).
A word on the AC50: it is the concentration at which the activity in the assay is half-maximal. Regarding `Cc1ccc(O)c(-c2cc(-c3cccc(Br)c3)[nH]n2)c1`, the EC50 in assay [7] is 16.3 µM (active); in [8], 4.48 µM (active). Further, the concentration at half-maximal activity (AC50) in assay [9] is 3.01 µM (active); in assay [10] it was 37.3 µM (active).
`CCCCN(C(=O)c1cccc(-n2cccc2)c1)c1c(N)n(Cc2ccccc2)c(=O)[nH]c1=O`: the AC50 at Caspase-6 is 4.26 µM (active); on Caspase-7, > 22 µM (inactive); at Caspase-8 it was 46.1 µM (active).
As to `CCC(=O)Nc1cc2nn(-c3ccccc3)nc2cc1Cl`, the AC50 in assay [11] was 5.02 µM (active).
On to `Fc1ccc(NC(S)=Nc2nccs2)cc1`, for which the EC50 with HEK293 [12] is 5.3 µM (active); in assay [16] it was 2.79 µM (active); in assay [18], > 60 µM (inconclusive). For the same compound, the IC50 with HEK293 [13] was > 20 µM (inactive); with HEK293 [14], > 20 µM (inactive); in the assay with HEK293 [15] it was 6.34 µM (inactive); in the assay with HEK293 [17] it was > 20 µM (inactive); in assay [19], > 122 µM (inactive); in the assay on HEK293 [20], > 20 µM (inactive).
Take `O=C(Nc1ccc(N2CCOCC2)cc1)c1ccc(Cl)c(S(=O)(=O)N2CCCC2)c1`: the AC50 in assay [21] is 2.17 µM (active); in assay [22], 69.4 µM (active); in [23] it was 22.3 µM (active); in assay [24], 2.65 µM (active).
Consider `CCCN1CCc2c(sc(NC(=O)C3CCN(S(=O)(=O)c4cccs4)CC3)c2C(N)=O)C1`, for which the AC50 in the assay “cells [25]” was 5.17 µM (active).
